Consider five compounds from patent US5856309A, “Amidinopyrroline derivatives, processes for their production and pharmaceutical agents containing these compounds” (Boehringer Mannheim GmbH, priority 1997, dated 1999).

Test [1] addresses isolated activated GpIIb/IIIa receptor (Homo sapiens, UniProt P05106+P08514). The test is described as follows: GpIIb/IIIa fibrinogen Elisa. As to conditions: inhibition of fibrinogen binding to coated GpIIb/IIIa receptor, optical density at 405 nm. Here is the method:
The GpIIb/IIIa fibrinogen Elisa is a modification of assays which are described in the following literature: Nachman, R. L. & Leung, L. L. K. (1982): J. Clin. Invest. 69: 263-269 and Wright, P. S. et al. (1993): Biochem. J. 293:263-267.
Microtiter plates were coated overnight with 2 μg/ml isolated activated GpIIb/IIIa receptor. After unbound receptor had been removed by washing several times the surface of the plates is blocked with 1% casein and it is washed again. The test substance is added at the required concentrations and the plates are incubated for 10 minutes while shaking. The natural ligand of the gpIIb/IIIa receptor, fibrinogen, is added. After incubating for 1 hour unbound fibrinogen is removed by washing several times and the bound fibrinogen is determined by means of a peroxidase-conjugated, anti-fibrinogen monoclonal antibody by measuring the optical density at 405 nm in an ELISA instrument. The inhibition of a fibrinogen-GpIIb/IIIa interaction results in a low optical density. The IC50 value was determined by a concentration/effect curve.

For a further test, the system named is horse thrombin. The test is described as follows: Thrombin time in citrate plasma (sphere coagulometer). Conditions: citrate plasma of healthy donors, 37° C., control ca. 24 seconds. In kind it is biochemical. Here is the method: A common test in clinical coagulation diagnostics is the thrombin time. This parameter detects the action of thrombin on fibrinogen and the formation of blood clots. Inhibitors of thrombin result in an increased thrombin time.
In order to obtain plasma 9 parts fresh blood from healthy donors are mixed with one part sodium citrate solution (0.11 mol/l) and centrifuged at ca. 3000 rpm for 10 min at room temperature. The plasma was removed by pipette and can be stored for ca. 8 h at room temperature.
200 ul citrate plasma was incubated for 2 min at 37° C. in a sphere coagulometer (KC10 from the Amelung Company). 10 ul dimethylsulfoxide (DMSO) or a solution of the active substance in DMSO was added to 190 ul preheated thrombin reagent (Boehringer Mannheim, GmbH; contains ca. 3 U/ml horse thrombin and 0.0125M Ca2+). A stopwatch was started when this 200 ul solution was added to the plasma and the time point at which coagulation starts was determined. […] [* the experiment was stopped after 5 minutes.]

The target of test [2] is T1, bovine pancreatic trypsin (Bos taurus, UniProt P00760).
T1 construct: purchased Sigma
T1 sequence (P00760 24-246): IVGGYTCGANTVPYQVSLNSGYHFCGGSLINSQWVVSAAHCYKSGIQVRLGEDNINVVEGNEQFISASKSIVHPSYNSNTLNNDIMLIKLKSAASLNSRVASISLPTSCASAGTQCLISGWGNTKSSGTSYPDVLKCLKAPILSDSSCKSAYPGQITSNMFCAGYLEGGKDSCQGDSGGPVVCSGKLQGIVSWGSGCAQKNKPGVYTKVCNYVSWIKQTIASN
The test is described as follows: Inhibition of trypsin, kinetic measurement as described for thrombin. The test is classed as biochemical. Conditions: measured as described for thrombin, read-out: inhibition constant Ki (trypsin).
Protocol: The kinetic measurements were carried out in 0.1M phosphate buffer which contained 0.2M sodium chloride and 0.5% polyethylene glycol 6000 at a pH=7.5 and 25° C. using the substrate H-(D)-Phe-Pro-Arg-pNA (S-2238 Kabi) and human thrombin (Sigma, specific activity=2150 NIH units/mg) in polystyrene semimicro-cuvettes in a total volume of 1 ml.
For this the reaction was started first by adding 0.03 NIH units thrombin to a 100 μM solution of the substrate and the active substance. In a second experiment substrate was added to a solution of thrombin and the active substance which had been incubated for 5 min. The increase of the concentration of p-nitro-anilide with time was monitored spectrophotometrically for 12 min at 405 nm (UV-VIS spectrophotometer Lambda-2 from the Perkin-Elmer Company). […] The inhibition constant Ki was determined as follows. […] The increase in absorbance at 405 nm caused by the formation of p-nitroanilide was monitored for a time period of 12 min. Measurement points (time versus absorbance) were transferred to a PC at intervals of 20 sec. The rates Vo (changes in absorbance per see; measurements without inhibitor) and Vi (measurements with inhibitor) were determined from the data by linear regression. […] From one measurement series (constant inhibitor concentration, variable substrate concentrations) Km' and Vmax were determined by a non-linear fit to the equation [formula] […]

Chain of isolated activated GpIIb/IIIa receptor (P08514 32-887 limits assumed): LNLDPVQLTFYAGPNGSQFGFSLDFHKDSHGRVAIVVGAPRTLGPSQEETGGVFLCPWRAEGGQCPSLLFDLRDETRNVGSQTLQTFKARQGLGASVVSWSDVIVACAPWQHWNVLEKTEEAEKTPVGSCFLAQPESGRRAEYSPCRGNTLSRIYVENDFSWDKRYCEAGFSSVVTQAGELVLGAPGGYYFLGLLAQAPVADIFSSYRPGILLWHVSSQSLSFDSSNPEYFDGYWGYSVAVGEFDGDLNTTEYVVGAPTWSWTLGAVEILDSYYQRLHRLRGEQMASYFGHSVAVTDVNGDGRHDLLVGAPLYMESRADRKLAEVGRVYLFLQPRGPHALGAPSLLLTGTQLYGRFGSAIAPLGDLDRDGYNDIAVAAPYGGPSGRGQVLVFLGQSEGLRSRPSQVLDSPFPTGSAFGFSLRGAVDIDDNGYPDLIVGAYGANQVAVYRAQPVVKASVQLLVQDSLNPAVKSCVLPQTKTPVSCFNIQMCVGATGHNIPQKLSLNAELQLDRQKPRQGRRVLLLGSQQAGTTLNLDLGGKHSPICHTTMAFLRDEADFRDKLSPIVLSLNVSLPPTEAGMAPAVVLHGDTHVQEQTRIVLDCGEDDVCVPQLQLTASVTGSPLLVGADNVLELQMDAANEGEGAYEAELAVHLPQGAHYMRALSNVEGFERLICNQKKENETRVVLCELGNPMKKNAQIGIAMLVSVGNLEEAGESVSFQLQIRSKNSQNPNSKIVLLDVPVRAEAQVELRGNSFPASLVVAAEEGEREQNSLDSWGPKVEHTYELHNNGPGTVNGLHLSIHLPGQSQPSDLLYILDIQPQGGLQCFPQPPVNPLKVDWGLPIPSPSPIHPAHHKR
Chain of isolated activated GpIIb/IIIa receptor (P08514 891-1039 partner limits assumed): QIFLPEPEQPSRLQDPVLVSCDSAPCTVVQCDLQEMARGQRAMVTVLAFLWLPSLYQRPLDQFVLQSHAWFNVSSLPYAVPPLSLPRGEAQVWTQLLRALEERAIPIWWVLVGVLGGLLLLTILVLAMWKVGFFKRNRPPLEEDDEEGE
Chain of isolated activated GpIIb/IIIa receptor (P05106 27-788): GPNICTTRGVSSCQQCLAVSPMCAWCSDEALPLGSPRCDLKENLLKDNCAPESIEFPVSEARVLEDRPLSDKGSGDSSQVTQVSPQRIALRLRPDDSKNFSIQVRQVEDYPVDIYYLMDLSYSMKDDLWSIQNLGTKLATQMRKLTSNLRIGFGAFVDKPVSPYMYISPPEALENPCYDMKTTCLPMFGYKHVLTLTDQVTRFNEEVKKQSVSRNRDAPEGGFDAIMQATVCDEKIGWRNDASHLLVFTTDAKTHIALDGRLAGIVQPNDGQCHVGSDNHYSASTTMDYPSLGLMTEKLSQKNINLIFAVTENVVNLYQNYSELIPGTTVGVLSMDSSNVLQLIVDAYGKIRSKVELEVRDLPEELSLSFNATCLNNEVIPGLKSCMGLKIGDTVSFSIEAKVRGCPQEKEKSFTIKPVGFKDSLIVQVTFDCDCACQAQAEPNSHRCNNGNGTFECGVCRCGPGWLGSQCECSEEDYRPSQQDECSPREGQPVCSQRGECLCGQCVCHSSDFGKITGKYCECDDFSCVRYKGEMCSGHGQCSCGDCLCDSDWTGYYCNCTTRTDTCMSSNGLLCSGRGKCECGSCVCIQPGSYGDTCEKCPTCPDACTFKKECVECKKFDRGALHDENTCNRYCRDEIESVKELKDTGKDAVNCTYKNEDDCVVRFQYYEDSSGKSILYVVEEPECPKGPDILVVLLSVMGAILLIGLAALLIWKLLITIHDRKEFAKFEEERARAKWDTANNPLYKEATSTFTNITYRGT

The compound `N=C(N)N1CC=C(CC(NC(=O)OCC(Cl)(Cl)Cl)C(=O)NCC(=O)N[C@@H](CC(=O)O)C(=O)N[C@@H](Cc2c[nH]c3ccccc23)C(=O)O)C1` (stereo partly drawn) [Example 8, Troc-Ada-Gly-Asp-Trp] showed a concentration for half-maximal inhibition (IC50) in test [1] of 400 nM.

For the compound `N=C(N)N1CC=C(CC(N)C(=O)NCC(=O)N[C@@H](CC(=O)O)C(=O)N[C@@H](Cc2ccc(O)cc2)C(=O)O)C1` (stereo partly drawn) [Example 10, Ada-Gly-Asp-Tyr], the concentration for half-maximal inhibition (IC50) in test [1] came out at 2400 nM.

As to D-Pla-D-Phe-L-Choi-Adc [Example 1], the “increase of thrombin time” value in the test on horse thrombin (test concentration 3.5 nM) is 5 s; with horse thrombin (test concentration 34 nM), 65 s; in the test with horse thrombin (test concentration 340 nM, experiment stopped after 5 minutes) it was over 300 s. The inhibition constant (Ki) in test [2] worked out at 100 nM.

On to `N=C(N)N1CC=C(CC(NC(=O)OCC(Cl)(Cl)Cl)C(=O)NCC(=O)N[C@@H](CC(=O)O)C(=O)N[C@@H](CO)C(=O)O)C1` (stereo partly drawn) [Example 7, Troc-Ada-Gly-Asp-Ser], for which the IC50 in test [1] amounted to 14400 nM.

As to `N=C(N)N1CC=C(CC(NC(=O)OCC(Cl)(Cl)Cl)C(=O)NCC(=O)N[C@@H](CC(=O)O)C(=O)N[C@@H](Cc2ccccc2)C(=O)O)C1` (stereo partly drawn) [Example 9, Troc-Ada-Gly-Asp-Phe], in test [1], the IC50 was 2300 nM.

A word on the IC50: it is the concentration needed to halve the response being measured. Read a low IC50 as greater potency in that assay. For orientation: Ki means a measure of affinity in units of concentration, obtained from inhibition or displacement.
